Source: patent US10131652B2, “Pyrimidinyloxy benzene derivatives as herbicides” (E. I. DU PONT DE NEMOURS AND COMPANY, priority 2014, dated 2018)

Tests used:
Type in all cases: in vivo
rice (Oryza sativa) = test: Test C flooded paddy test plant response; conditions: Flood, 250 g ai/ha; scale of 0 to 100 where 0 is no effect and 100 is complete control; 13 to 15 days
Procedure, shortened: (§1)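 Two-leaf stage → flood to 3 cm → compound into water → hold depth, greenhouse 13–15 d → visual score vs controls (0 none, 100 complete control).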

[1] = tested on: barnyardgrass (Echinochloa crus-galli); test: Test C flooded paddy test plant response; conditions: Flood, 250 g ai/ha; scale of 0 to 100 where 0 is no effect and 100 is complete control; 13 to 15 days
Procedure, shortened: as §1

[2] = tested on: small-flower umbrella sedge (Cyperus difformis); test: Test C flooded paddy test plant response; conditions: Flood, 250 g ai/ha; scale of 0 to 100 where 0 is no effect and 100 is complete control; 13 to 15 days
Procedure, shortened: as §1

[3] = tested on: ducksalad (Heteranthera limosa); test: Test C flooded paddy test plant response; conditions: Flood, 250 g ai/ha; scale of 0 to 100 where 0 is no effect and 100 is complete control; 13 to 15 days
Procedure, shortened: as §1

[4] = tested on: blackgrass (Alopecurus myosuroides); test: Test B postemergence plant response
Procedure, shortened: (§2)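 Seedlings in a loam soil and sand mix received a postemergence application of the formulated chemicals at the one- to two-leaf stage (2–10 cm tall). They were kept in a greenhouse for roughly 10 days, then scored for injury relative to untreated plants, 0 meaning no effect and 100 complete control.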

[5] = tested on: galium (catchweed bedstraw, Galium aparine); test: Test B postemergence plant response
Procedure, shortened: as §2

[6] = tested on: Italian ryegrass (Lolium multiflorum); test: Test B pre-/postemergence plant response
Text: (§3) Seeds of plant species selected from bamyardgrass (Echinochloa crus-galli), kochia (Kochia scoparia), ragweed (common ragweed, Ambrosia elatior), Italian ryegrass (Lolium multiflorum), large (Lg) crabgrass (Digitaria sanguinalis), giant foxtail (Setaria faberii), momingglory (Ipomoea spp.), pigweed (Amaranthus retroflexus), velvetleaf (Abutilon theophrasti), wheat (Triticum aestivum), and corn (Zea mays) were planted into a blend of loam soil and sand and treated preemergence with a directed soil spray using test chemicals formulated in a non-phytotoxic solvent mixture which included a surfactant. At the same time, plants selected from these crop and weed species and also blackgrass (Alopecurus myosuroides), and galium (catchweed bedstraw, Galium aparine) were planted in pots containing the same blend of loam soil and sand and treated with postemergence applications of test chemicals formulated in the same manner. Plants ranged in height from 2 to 10 cm and were in the one- to two-leaf stage for the postemergence treatment. Treated plants and untreated controls were maintained in a greenhouse for approximately 10 days, after which time all treated plants were compared to untreated controls and visually evaluated for injury. Plant response ratings, summarized in Table B, are based on a 0 to 100 scale where 0 is no effect and 100 is complete control. A dash (-) response means no test result.

[7] = tested on: ragweed (common ragweed, Ambrosia elatior); test: Test B pre-/postemergence plant response
Text: as §3

[8] = tested on: giant foxtail (Setaria faberii); test: Test B pre-/postemergence plant response
Text: as §3

[9] = tested on: barnyardgrass (Echinochloa crus-galli); test: Test B pre-/postemergence plant response
Text: as §3

corn (Zea mays) = test: Test B pre-/postemergence plant response
Text: as §3

[10] = tested on: wheat (Triticum aestivum); test: Test B pre-/postemergence plant response
Text: as §3

kochia (Kochia scoparia) = test: Test B pre-/postemergence plant response
Text: as §3

[11] = tested on: pigweed (Amaranthus retroflexus); test: Test B pre-/postemergence plant response
Text: as §3

[12] = 125 g ai/ha, postemergence, 0 to 100 scale, 0 no effect, 100 complete control
[13] = Postemergence, 31 g ai/ha, 0 to 100 scale (0 no effect, 100 complete control)
[14] = 31 g ai/ha, Preemergence, 0 to 100 scale where 0 is no effect and 100 is complete control
[15] = Preemergence, 125 g ai/ha, 0 to 100 scale (0 no effect, 100 complete control)
[16] = 31 g ai/ha, Postemergence, 0 to 100 scale, 0 no effect, 100 complete control
[17] = Preemergence, 125 g ai/ha, 0 to 100 scale where 0 is no effect and 100 is complete control

SMILES | Rice plant response rating (rice (Oryza sativa)) | Barnyardgrass plant response rating [1] | Sedge, Umbrella plant response rating [2] | Ducksalad plant response rating [3] | Plant response rating, Blackgrass [4, 12] | Plant response rating, Galium [5, 12] | Plant response rating, Ryegrass, Italian [6, 14] | Plant response rating, Ryegrass, Italian [6, 12] | Plant response rating, Ragweed [7, 14] | Plant response rating, Ragweed [7, 12] | Plant response rating, Foxtail, Giant [8, 14] | Plant response rating, Foxtail, Giant [8, 12] | Plant response rating, Barnyardgrass [9, 14] | Plant response rating, Barnyardgrass [9, 12] | Plant response rating, Corn (corn (Zea mays); [12]) | Plant response rating, Wheat [10, 12] | Plant response rating, Kochia (kochia (Kochia scoparia); [14]) | Plant response rating, Kochia (kochia (Kochia scoparia); [12]) | Plant response rating, Pigweed [11, 14] | Plant response rating, Pigweed [11, 12] | further results
Brc1cnc(Oc2ccccc2-c2ccns2)nc1 [Compound 234] | 0 | 0 | 0 | 0 | 10 | 0 | 0 | 0 | 0 | 10 | 0 | 0 | 0 | 0 | 10 | 0 | 0 | 0 | 0 | 20 | Plant response rating, Blackgrass [4, 13]: 0; Plant response rating, Galium [5, 13]: 0; Plant response rating, Ryegrass, Italian [6, 13]: 0; Ryegrass, Italian plant response rating [6, 15]: 0; Plant response rating, Ragweed [7, 13]: 0; Plant response rating, Foxtail, Giant [8, 13]: 0; Foxtail, Giant plant response rating [8, 15]: 0; Plant response rating, Barnyardgrass [9, 13]: 0; Barnyardgrass plant response rating [9, 15]: 0; Plant response rating, Corn (corn (Zea mays); [13]): 0; Plant response rating, Wheat [10, 13]: 0; Plant response rating, Kochia (kochia (Kochia scoparia); [13]): 0; Kochia plant response rating (kochia (Kochia scoparia); [15]): 0; Plant response rating, Pigweed [11, 13]: 0; Pigweed plant response rating [11, 15]: 0
CCOC(OCC)c1cc(-c2ccccc2Oc2ncc(Cl)cn2)on1 [Compound 108] | 0 | 0 | 0 | 0 | 0 | 50 | 0 | 0 | 0 | 0 | 0 | 0 | 0 | 0 | 10 | 0 | 0 | 0 | 0 | 0 | Plant response rating, Blackgrass [4, 16]: 0; Plant response rating, Galium [5, 16]: 30; Plant response rating, Ryegrass, Italian [6, 16]: 0; Plant response rating, Ryegrass, Italian [6, 17]: 0; Plant response rating, Ragweed [7, 16]: 0; Plant response rating, Ragweed [7, 17]: 0; Plant response rating, Foxtail, Giant [8, 16]: 0; Plant response rating, Foxtail, Giant [8, 17]: 0; Plant response rating, Barnyardgrass [9, 16]: 0; Plant response rating, Barnyardgrass [9, 17]: 0; Plant response rating, Corn (corn (Zea mays); [16]): 0; Plant response rating, Wheat [10, 16]: 0; Plant response rating, Kochia (kochia (Kochia scoparia); [16]): 0; Plant response rating, Kochia (kochia (Kochia scoparia); [17]): 0; Plant response rating, Pigweed [11, 16]: 0; Plant response rating, Pigweed [11, 17]: 0
